Tests used:
[1] = refractive index (Na D-line) (dimensionless); conditions: 298.15 K; 101.33 kPa; Liquid; Standard Abbe refractometry
[2] = Liquid; for mass density / speed of sound: 298.15 K, 101.33 kPa
[3] = xn = mol fraction of the nth substance listed; conditions: 298.15 K, 101 kPa, Liquid

CCC(C)CO (stereo not given) [2-methyl-1-butanol]
Conditions	mass density [kg/m3]	refractive index	speed of sound [m/s]
[1]	–	1.40866	–
[2]	814.7	–	1251.8

Conditions	Normal boiling temperature [°C]
[2], Ebulliometric method (Recirculating still)	128.78

CCC(C)CO (stereo not given) [2-methyl-1-butanol] + CCOC(C)=O
[3]
Conditions	mass density [kg/m3]
x2 = 0.05	817.8
x2 = 0.099	820.9
x2 = 0.15	824.2
x2 = 0.2	827.5
x2 = 0.25	830.9
x2 = 0.3	834.4
x2 = 0.349	838
x2 = 0.399	841.7
x2 = 0.451	845.6
x2 = 0.499	849.4
x2 = 0.549	853.3
x2 = 0.598	857.3
x2 = 0.65	861.6
x2 = 0.699	865.8
x2 = 0.75	870.2
x2 = 0.793	874.2
x2 = 0.846	879.1
x2 = 0.9	884.2
x2 = 0.95	889.1

CC(C)CO [2-methyl-1-propanol]
Conditions	mass density [kg/m3]	refractive index	speed of sound [m/s]
[1]	–	1.39366	–
[2]	797.8	–	1186.4

Conditions	Normal boiling temperature [°C]
[2], Ebulliometric method (Recirculating still)	107.78

CC(C)CO [2-methyl-1-propanol] + CCOC(C)=O
[3]
Conditions	mass density [kg/m3]
x2 = 0.049	802.3
x2 = 0.101	806.8
x2 = 0.153	811.5
x2 = 0.202	816
x2 = 0.251	820.6
x2 = 0.3	825.2
x2 = 0.35	829.9
x2 = 0.401	834.7
x2 = 0.451	839.5
x2 = 0.501	844.3
x2 = 0.55	849
x2 = 0.6	853.8
x2 = 0.65	858.8
x2 = 0.7	863.7
x2 = 0.751	868.9
x2 = 0.801	873.8
x2 = 0.85	878.7
x2 = 0.9	883.8
x2 = 0.95	888.9

CCOC(C)=O [ethyl acetate]
Conditions	Normal boiling temperature [°C]	mass density [kg/m3]	refractive index	speed of sound [m/s]
[1]	–	–	1.36978	–
[2]	77.00	894.3	–	1139.6

Reference: the NIST ThermoML archive (doi:10.1021/je050420+)
